Source: ChEMBL document CHEMBL5291721, “A preclinical secondary pharmacology resource illuminates target-adverse drug reaction associations of marketed drugs” (Nat Commun, 2023)

Legend:
[1] = molecular target: T1, Alpha-1A adrenergic receptor (Homo sapiens, UniProt P35348); type: functional, cell-based
T1 sequence (P35348 whole entry): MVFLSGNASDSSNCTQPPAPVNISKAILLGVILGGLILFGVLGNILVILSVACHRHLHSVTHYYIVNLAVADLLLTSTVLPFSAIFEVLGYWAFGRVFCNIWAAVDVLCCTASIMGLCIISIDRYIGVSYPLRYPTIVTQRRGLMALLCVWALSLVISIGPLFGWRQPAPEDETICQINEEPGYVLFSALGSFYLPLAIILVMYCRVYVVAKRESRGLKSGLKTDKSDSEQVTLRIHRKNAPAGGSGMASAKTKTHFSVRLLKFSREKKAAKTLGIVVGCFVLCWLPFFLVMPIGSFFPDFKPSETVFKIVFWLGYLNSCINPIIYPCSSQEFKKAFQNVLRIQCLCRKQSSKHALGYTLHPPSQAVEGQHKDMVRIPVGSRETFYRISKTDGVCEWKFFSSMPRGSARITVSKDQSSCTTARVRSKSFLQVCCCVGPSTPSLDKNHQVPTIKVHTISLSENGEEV

[2] = molecular target: T2, Alpha-2A adrenergic receptor (Homo sapiens, UniProt P08913)
T2 sequence (P08913 whole entry): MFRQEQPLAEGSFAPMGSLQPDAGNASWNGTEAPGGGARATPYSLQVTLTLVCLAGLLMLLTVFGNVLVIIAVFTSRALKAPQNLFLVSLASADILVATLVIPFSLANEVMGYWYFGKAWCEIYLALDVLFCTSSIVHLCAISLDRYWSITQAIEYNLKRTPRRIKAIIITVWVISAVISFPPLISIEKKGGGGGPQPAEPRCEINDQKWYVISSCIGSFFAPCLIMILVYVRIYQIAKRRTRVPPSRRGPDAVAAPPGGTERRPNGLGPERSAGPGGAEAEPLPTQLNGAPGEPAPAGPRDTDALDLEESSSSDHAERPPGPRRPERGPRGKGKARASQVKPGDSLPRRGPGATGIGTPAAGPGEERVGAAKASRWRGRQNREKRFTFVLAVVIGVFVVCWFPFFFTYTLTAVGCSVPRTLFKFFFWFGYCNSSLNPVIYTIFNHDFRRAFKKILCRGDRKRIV

[3] = molecular target: T3, Muscarinic acetylcholine receptor M2 (Homo sapiens, UniProt P08172)
T3 sequence (P08172 whole entry): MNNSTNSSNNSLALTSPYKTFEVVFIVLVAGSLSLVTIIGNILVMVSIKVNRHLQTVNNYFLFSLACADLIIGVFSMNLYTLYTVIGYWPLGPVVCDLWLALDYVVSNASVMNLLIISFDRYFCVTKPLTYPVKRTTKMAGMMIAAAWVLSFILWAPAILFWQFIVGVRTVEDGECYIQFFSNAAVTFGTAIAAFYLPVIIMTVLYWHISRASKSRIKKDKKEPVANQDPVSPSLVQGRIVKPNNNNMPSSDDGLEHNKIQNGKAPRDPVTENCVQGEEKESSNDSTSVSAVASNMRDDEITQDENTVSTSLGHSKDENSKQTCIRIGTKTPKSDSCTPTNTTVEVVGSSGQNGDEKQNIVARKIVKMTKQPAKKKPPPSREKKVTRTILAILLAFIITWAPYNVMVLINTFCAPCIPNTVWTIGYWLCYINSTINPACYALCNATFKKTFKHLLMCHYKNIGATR

[4] = molecular target: D(1A) dopamine receptor (Homo sapiens, UniProt P21728)
[5] = molecular target: D(3) dopamine receptor (Homo sapiens, UniProt P35462)
[6] = molecular target: Prothrombin (Homo sapiens, UniProt P00734); type: functional
[7] = molecular target: Histamine H3 receptor (Homo sapiens, UniProt Q9Y5N1)
[8] = molecular target: T4, 5-hydroxytryptamine receptor 1A (Homo sapiens, UniProt P08908)
T4 sequence (P08908 whole entry): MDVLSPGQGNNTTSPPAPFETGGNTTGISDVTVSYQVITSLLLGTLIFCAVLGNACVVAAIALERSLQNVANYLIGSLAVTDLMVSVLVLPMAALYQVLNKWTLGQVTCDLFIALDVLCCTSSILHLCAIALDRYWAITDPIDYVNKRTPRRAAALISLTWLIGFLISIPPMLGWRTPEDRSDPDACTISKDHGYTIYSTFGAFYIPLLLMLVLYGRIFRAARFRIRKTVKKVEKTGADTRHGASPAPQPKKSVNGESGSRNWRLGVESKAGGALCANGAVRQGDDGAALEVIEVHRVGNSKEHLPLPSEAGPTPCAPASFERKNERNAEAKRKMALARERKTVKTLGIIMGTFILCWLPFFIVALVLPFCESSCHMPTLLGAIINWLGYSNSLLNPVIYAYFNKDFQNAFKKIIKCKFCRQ

[9] = molecular target: Voltage-gated inwardly rectifying potassium channel KCNH2 (Homo sapiens, UniProt Q12809); type: functional; details: read-out: AC50
[10] = molecular target: T5, Amine oxidase [flavin-containing] A (Homo sapiens, UniProt P21397); type: functional
T5 sequence (P21397 whole entry): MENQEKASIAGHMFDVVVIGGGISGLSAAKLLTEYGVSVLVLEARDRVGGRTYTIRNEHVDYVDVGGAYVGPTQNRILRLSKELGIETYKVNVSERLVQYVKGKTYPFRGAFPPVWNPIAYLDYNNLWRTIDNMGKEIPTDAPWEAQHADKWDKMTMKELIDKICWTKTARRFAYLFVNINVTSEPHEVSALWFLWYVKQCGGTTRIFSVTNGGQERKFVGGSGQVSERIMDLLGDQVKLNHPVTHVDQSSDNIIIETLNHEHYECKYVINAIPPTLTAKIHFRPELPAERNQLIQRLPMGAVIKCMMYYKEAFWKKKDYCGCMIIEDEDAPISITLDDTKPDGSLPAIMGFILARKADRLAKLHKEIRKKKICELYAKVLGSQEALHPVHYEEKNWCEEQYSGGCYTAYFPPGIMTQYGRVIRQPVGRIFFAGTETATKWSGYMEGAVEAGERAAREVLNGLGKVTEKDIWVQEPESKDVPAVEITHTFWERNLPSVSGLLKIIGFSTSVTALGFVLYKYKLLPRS

[11] = molecular target: Mu-type opioid receptor (Homo sapiens, UniProt P35372)
[12] = molecular target: 3',5'-cyclic-AMP phosphodiesterase 4A (Homo sapiens, UniProt P27815); type: functional
[13] = molecular target: Sodium-dependent noradrenaline transporter (Homo sapiens, UniProt P23975)
[14] = molecular target: Sodium-dependent dopamine transporter (Homo sapiens, UniProt Q01959)
Further: assay procedure not described here.

D(1A) dopamine receptor, sequence (P21728 whole entry): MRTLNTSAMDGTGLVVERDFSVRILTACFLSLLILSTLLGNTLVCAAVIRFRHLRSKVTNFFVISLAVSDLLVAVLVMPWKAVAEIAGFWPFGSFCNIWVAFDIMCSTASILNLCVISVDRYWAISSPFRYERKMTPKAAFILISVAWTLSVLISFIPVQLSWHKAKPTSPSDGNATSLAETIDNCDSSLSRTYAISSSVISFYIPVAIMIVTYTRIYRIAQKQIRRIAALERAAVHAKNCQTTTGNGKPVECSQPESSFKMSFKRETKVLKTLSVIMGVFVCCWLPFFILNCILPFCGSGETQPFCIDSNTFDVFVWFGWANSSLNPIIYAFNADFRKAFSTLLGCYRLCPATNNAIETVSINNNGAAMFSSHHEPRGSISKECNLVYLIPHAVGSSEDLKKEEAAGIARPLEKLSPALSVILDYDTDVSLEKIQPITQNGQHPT
D(3) dopamine receptor, sequence (P35462 whole entry): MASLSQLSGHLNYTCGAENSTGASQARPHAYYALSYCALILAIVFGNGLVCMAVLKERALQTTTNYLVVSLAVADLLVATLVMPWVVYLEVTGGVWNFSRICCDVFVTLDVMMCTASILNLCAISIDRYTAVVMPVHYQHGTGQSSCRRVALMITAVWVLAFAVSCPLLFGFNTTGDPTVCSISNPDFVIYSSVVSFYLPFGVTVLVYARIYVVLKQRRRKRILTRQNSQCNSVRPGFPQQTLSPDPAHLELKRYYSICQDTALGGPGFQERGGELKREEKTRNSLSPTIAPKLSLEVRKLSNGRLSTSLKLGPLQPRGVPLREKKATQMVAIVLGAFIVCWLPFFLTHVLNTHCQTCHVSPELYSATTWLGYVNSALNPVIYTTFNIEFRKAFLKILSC
3',5'-cyclic-AMP phosphodiesterase 4A, sequence (P27815 whole entry): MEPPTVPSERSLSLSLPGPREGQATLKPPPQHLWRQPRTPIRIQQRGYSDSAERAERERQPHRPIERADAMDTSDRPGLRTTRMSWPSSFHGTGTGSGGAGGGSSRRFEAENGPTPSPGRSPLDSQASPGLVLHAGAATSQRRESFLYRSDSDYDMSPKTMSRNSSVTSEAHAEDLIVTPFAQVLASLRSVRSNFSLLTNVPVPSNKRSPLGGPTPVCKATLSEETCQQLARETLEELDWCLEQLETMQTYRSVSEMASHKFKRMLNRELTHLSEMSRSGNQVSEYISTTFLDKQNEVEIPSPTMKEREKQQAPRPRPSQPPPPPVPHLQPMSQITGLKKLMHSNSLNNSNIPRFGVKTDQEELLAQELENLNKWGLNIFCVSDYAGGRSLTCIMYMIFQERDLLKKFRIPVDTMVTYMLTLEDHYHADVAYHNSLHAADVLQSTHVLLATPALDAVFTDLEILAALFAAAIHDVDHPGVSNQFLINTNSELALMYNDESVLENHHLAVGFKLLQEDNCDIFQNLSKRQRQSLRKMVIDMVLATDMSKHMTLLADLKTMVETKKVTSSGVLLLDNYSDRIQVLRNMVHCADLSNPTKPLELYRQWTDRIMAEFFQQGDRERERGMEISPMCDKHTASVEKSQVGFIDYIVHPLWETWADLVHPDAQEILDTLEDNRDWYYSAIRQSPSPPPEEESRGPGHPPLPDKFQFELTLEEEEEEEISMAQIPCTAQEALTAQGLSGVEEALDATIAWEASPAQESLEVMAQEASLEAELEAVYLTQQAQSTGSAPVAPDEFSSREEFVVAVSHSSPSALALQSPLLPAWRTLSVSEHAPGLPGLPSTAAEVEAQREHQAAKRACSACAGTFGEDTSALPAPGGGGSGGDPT
Voltage-gated inwardly rectifying potassium channel KCNH2, sequence (Q12809 whole entry): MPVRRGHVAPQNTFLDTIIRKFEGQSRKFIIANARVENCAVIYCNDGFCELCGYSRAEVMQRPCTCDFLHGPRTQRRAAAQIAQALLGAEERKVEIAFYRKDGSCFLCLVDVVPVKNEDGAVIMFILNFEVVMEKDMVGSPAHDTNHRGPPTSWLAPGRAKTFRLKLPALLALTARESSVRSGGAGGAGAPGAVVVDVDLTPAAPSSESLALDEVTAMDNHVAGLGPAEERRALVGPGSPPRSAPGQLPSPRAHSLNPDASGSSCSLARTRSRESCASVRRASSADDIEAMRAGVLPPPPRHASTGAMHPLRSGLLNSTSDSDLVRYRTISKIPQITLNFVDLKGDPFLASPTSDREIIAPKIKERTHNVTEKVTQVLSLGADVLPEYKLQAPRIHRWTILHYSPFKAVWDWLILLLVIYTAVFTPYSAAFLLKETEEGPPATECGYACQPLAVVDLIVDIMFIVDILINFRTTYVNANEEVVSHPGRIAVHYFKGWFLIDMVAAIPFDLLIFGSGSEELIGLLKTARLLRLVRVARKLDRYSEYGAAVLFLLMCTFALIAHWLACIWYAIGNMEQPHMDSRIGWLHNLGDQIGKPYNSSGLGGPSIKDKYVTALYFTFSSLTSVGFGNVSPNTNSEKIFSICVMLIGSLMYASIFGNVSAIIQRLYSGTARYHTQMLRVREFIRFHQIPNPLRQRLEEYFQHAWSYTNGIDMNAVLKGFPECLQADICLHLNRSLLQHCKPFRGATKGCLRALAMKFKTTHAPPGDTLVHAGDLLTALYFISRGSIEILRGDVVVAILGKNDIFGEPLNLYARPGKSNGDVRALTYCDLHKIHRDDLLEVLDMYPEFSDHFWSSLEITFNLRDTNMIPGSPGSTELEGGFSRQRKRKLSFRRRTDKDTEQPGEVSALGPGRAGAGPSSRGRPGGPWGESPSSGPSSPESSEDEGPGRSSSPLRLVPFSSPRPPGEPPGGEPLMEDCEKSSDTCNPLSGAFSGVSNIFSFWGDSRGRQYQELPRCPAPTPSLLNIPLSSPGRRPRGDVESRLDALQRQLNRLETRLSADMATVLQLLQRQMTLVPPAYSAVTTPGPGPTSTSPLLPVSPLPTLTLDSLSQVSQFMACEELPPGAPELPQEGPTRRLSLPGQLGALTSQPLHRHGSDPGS
Sodium-dependent dopamine transporter, sequence (Q01959 whole entry): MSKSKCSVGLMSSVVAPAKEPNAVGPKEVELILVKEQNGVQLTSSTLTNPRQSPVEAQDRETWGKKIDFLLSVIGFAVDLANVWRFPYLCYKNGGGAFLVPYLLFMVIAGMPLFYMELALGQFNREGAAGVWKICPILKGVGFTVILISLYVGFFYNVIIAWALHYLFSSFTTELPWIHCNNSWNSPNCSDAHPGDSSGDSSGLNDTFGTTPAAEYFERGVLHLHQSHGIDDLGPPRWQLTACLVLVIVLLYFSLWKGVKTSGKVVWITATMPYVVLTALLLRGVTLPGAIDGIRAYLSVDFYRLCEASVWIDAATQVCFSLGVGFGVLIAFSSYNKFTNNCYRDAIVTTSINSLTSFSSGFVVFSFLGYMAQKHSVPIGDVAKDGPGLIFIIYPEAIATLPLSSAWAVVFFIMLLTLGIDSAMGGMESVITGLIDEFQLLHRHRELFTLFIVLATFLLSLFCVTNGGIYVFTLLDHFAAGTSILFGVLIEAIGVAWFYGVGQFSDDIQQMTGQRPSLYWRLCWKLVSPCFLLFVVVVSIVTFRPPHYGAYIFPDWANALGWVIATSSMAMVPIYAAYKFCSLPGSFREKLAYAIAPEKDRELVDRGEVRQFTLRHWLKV
Sodium-dependent noradrenaline transporter, sequence (P23975 whole entry): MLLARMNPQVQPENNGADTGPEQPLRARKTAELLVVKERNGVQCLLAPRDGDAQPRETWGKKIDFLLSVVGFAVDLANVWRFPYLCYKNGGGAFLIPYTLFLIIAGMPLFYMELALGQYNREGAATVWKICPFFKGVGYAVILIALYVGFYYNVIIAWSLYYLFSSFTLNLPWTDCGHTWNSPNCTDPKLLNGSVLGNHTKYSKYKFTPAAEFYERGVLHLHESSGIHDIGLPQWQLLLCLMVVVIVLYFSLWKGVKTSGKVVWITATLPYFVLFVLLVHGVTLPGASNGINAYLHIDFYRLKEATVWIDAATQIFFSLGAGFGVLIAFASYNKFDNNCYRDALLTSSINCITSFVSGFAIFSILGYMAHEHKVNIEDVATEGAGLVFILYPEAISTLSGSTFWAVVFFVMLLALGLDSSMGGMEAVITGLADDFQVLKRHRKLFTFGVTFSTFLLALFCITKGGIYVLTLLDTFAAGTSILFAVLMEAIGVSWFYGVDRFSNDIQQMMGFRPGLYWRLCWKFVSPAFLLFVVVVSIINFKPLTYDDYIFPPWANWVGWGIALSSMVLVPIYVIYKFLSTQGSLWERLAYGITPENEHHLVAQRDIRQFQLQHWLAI
Histamine H3 receptor, sequence (Q9Y5N1 whole entry): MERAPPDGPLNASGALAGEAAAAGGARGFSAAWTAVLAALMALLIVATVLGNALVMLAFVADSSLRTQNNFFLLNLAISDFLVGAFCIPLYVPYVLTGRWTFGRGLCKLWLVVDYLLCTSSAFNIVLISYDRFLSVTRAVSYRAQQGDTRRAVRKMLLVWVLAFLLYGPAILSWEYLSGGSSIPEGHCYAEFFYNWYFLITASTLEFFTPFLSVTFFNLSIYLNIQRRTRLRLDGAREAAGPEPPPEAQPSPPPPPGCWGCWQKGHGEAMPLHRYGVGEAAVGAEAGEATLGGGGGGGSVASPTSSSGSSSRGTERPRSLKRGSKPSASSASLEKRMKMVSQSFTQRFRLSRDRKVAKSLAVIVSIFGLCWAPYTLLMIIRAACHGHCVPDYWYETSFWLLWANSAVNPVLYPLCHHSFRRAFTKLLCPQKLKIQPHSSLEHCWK
Mu-type opioid receptor, sequence (P35372 whole entry): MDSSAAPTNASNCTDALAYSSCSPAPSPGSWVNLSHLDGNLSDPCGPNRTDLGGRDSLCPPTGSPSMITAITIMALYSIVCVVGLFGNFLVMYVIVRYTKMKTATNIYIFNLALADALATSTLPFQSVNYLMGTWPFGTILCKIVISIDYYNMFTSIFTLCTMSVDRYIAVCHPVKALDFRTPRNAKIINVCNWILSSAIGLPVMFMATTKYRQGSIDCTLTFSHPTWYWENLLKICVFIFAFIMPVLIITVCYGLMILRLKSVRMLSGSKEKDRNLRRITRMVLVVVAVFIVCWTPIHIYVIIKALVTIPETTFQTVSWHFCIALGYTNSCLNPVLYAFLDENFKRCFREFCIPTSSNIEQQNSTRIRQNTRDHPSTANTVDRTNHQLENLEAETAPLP

SMILES | AC50 [1] [µM] | AC50 [2] [µM] | AC50 [3] [µM] | AC50 [4] [µM] | AC50 [5] [µM] | AC50 [6] [µM] | AC50 [7] [µM] | AC50 [8] [µM] | AC50 [9] [µM] | AC50 [10] [µM] | AC50 [11] [µM] | AC50 [12] [µM] | AC50 [13] [µM] | AC50 [14] [µM]
CO[C@H]1/C=C/O[C@@]2(C)Oc3c(C)c(O)c4c(O)c(cc(O)c4c3C2=O)NC(=O)/C(C)=C\C=C\[C@H](C)[C@H](O)[C@@H](C)[C@@H](O)[C@@H](C)[C@H](OC(C)=O)[C@@H]1C [RIFAMYCIN] | 8.13 | > 30 | > 30 | > 30 | > 30 | > 30 | > 30 | > 30 | > 30 | > 30 | > 30 | > 30 | > 30 | > 30
CCCC(=O)O[C@H]1[C@H](C)O[C@@H](O[C@H]2[C@H](N(C)C)[C@@H](O)[C@H](O[C@H]3[C@@H](CC=O)C[C@@H](C)[C@@H](O)/C=C/C=C/C[C@@H](C)OC(=O)C[C@@H](O)[C@@H]3OC)O[C@@H]2C)C[C@@]1(C)OC(=O)CC [ROKITAMYCIN] | > 30 | > 30 | > 30 | > 30 | > 30 | > 30 | > 30 | > 30 | > 30 | > 30 | > 30 | > 30 | > 30 | > 30
CCCCCCCCCCCCCCCCCC(=O)NCCCC[C@H](NC(=O)CC[C@@H](NC(=O)[C@H](C)NC(=O)[C@@H](C)O[C@H]1[C@H](O)[C@@H](CO)OC(O)[C@@H]1NC(C)=O)C(N)=O)C(=O)O (stereo partly specified) [ROMURTIDE] | > 30 | > 30 | > 30 | > 30 | > 30 | > 30 | > 30 | 6.21 | 26 | > 30 | > 30 | > 3 | > 30 | > 30
O=C(Oc1ccccc1C(=O)O)c1ccccc1O [SALSALATE] | > 30 | > 30 | > 30 | > 30 | > 30 | > 30 | > 30 | > 30 | > 30 | > 30 | > 30 | > 30 | > 30 | > 30
CCOC(=O)[C@H](CCc1ccccc1)N[C@H]1CS[C@H](c2cccs2)CN(CC(=O)O)C1=O [TEMOCAPRIL] | > 30 | > 30 | > 30 | > 30 | > 30 | > 30 | > 30 | > 30 | > 30 | > 30 | > 30 | > 10 | > 30 | > 30
COc1cc([C@@H]2c3cc4c(cc3[C@@H](O[C@@H]3O[C@@H]5CO[C@@H](c6cccs6)O[C@H]5[C@H](O)[C@H]3O)[C@H]3COC(=O)[C@H]23)OCO4)cc(OC)c1O [TENIPOSIDE] | > 30 | > 30 | > 30 | > 30 | > 30 | > 30 | > 30 | > 30 | > 30 | > 30 | > 30 | > 30 | > 30 | > 30
c1ccc2[nH]c(-c3cscn3)nc2c1 [THIABENDAZOLE] | > 30 | > 30 | > 30 | > 30 | > 30 | > 30 | > 30 | > 30 | > 30 | > 30 | > 30 | > 30 | > 30 | > 30
CCSc1ccc2c(c1)N(CCCN1CCN(C)CC1)c1ccccc1S2 [THIETHYLPERAZINE] | 24.7 | 0.211 | 2.24 | 0.0079 | 0.0031 | > 30 | 13 | 0.449 | 1.2 | > 30 | 2.69 | > 30 | 1.65 | 3.87
C[C@@H]1C[C@H]2[C@@H]3CCC4=CC(=O)C=C[C@]4(C)C3=CC[C@]2(C)[C@H]1C(=O)CN1CCN(c2cc(N3CCCC3)nc(N3CCCC3)n2)CC1 [TIRILAZAD] | > 30 | 17.3 | 0.432 | 7.07 | 9.69 | > 30 | > 30 | > 30 | 1.9 | > 30 | > 30 | 19.4 | > 30 | > 30
